This note sets out measurements from patent US20080207718A1, “Use of Fused Imidazole Derivatives to Mediate Ccr3 Related Conditions” (priority 2005, published 2008).

The target of this test is T1, human CCR-3 (Homo sapiens, UniProt P51677).
T1 construct: expressed in transfected cells; host or cells: rat basophil leukaemia (RBL-2H3) cells, membrane preparation
T1 sequence (P51677 1-355): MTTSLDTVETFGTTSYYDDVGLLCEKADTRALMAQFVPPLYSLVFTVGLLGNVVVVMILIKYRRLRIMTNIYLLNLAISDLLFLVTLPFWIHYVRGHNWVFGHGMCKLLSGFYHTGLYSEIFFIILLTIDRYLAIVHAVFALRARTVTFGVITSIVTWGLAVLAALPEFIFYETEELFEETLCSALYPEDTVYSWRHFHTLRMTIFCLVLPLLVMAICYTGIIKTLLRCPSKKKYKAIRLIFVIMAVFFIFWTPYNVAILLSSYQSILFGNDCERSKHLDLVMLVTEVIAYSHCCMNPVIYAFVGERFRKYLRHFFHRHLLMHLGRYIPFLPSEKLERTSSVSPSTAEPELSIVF
The experiment in a line: binding of [125I]-human eotaxin to human CCR3 (SPA, membranes of RBL-2H3 cells expressing CCR3). Conditions: 4 hours at room temperature, read-out: IC50 value (inhibition of eotaxin binding to CCR3). How it is done:
In this assay the effect of the compounds of the present invention on the binding of human eotaxin to human CCR-3 is determined. Recombinant cells expressing human CCR3 are captured by wheatgerm agglutinin (WGA) polyvinyltoluidene (PVT) SPA beads (available from Amersham), through a specific interaction between the WGA and carbohydrate residues of glycoproteins on the surface of the cells. [^125I]-human eotaxin (available from Amersham) binds specifically to CCR3 receptors bringing the [^125I]-human eotaxin in close proximity to the SPA beads. Emitted […] from the [^125I]-human eotaxin excite, by its proximity, the fluorophore in the beads and produce light.
Preparation of Assay Buffer: 5.96 g HEPES and 7.0 g sodium chloride are dissolved in distilled H2O and 1M aqueous CaCl2 (1 ml) and 1M aqueous MgCl2 (5 ml) are added. The pH is adjusted to 7.6 with NaOH and the solution made to a final volume of 1 L using distilled H2O. 5 g of bovine serum albumin and 0.1 g NaN3 are dissolved in the solution and the resulting buffer stored at 4° C. […]
The assay is performed in a final volume of 250 μl per well of an Optiplate™ microplate (ex Canberra Packard). […] The resulting scintillations are counted using a Canberra Packard TopCount™ scintillation counter, each well being counted for 1 minute. […]

Each structure is given as a SMILES string. pIC50: −log10 of the molar value.

The term pIC50 denotes −log10 of the IC50, conventionally taken in molar units. In the case of `COc1ccc(OC)c(NC(=O)C[n+]2cc(-c3ccc(Cl)c(Cl)c3)n3c2CCC3)c1` [Example 322], the negative logarithm of the IC50 (pIC50) was 7.68.

For the compound `O=C(C[n+]1cc(-c2ccc(Cl)c(Cl)c2)n2c1CCC2)Nc1ccc2c(c1)OCCO2` [Example 341], the pIC50 was 7.64.
